Reference: ChEMBL document CHEMBL1142256, “Phosphoramidate derivatives of hydroxysteroids as inhibitors of prostate-specific membrane antigen” (Bioorg Med Chem Lett, 2008)

molecular target: Glutamate carboxypeptidase 2 (Homo sapiens, UniProt Q04609); test: Inhibition of human PSMA
Sequence (Q04609 whole entry): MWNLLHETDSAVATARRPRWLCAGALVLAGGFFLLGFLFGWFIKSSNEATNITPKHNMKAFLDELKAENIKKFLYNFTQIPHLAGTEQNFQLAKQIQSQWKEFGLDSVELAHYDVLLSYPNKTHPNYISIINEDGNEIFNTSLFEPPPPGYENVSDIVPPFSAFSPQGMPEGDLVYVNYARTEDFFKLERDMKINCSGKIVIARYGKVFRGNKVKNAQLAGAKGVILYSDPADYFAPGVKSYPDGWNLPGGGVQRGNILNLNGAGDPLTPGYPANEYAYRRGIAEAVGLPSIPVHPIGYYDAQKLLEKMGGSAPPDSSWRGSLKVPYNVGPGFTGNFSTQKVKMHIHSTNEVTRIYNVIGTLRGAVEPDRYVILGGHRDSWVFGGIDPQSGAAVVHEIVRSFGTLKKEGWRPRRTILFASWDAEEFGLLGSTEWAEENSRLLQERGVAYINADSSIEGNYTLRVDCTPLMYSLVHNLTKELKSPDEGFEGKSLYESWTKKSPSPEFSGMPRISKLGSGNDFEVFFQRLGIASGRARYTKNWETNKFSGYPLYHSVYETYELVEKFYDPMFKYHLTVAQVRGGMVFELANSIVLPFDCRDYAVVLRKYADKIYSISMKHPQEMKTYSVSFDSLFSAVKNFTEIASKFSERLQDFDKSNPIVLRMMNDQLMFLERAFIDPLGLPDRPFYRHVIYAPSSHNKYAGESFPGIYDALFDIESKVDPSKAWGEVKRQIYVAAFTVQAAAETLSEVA

Q: `C[C@]12CC[C@@H]3c4ccc(OCCCOP(=O)(O)N[C@@H](CCC(=O)O)C(=O)O)cc4CC[C@H]3[C@@H]1CCC2=O` was tested. Which IC50 did it give?
A: 140 nM

Q: `C[C@]12CC[C@@H]3c4ccc(OC(=O)c5ccccc5)cc4CC[C@H]3[C@@H]1CC[C@@H]2OCCCOP(=O)(O)N[C@@H](CCC(=O)O)C(=O)O` was tested. Which IC50 did it give?
A: 572 nM

Q: How did the IC50 turn out when `CC(C)CCC[C@@H](C)[C@H]1CC[C@H]2[C@@H]3CCC4C[C@@H](OCCCOP(=O)(O)N[C@@H](CCC(=O)O)C(=O)O)CC[C@]4(C)[C@H]3CC[C@]12C` (stereo partly specified) was run?
A: 125 nM

Q: For `CC(C)CCC[C@@H](C)[C@H]1CC[C@H]2[C@@H]3CCC4C[C@@H](OP(=O)(O)N[C@@H](CCC(=O)O)C(=O)O)CC[C@]4(C)[C@H]3CC[C@]12C` (stereo partly specified), which IC50 is on record?
A: 435 nM

Q: For `C[C@]12CC[C@H](OP(=O)(O)N[C@@H](CCC(=O)O)C(=O)O)C[C@@H]1CC[C@@H]1[C@@H]2CC[C@]2(C)C(=O)CC[C@@H]12`, which IC50 is on record?
A: 569 nM

Q: With `C[C@]12CC[C@H](OCCCOP(=O)(O)N[C@@H](CCC(=O)O)C(=O)O)C[C@@H]1CC[C@@H]1[C@@H]2CC[C@]2(C)C(=O)CC[C@@H]12` as the molecule, how does the IC50 read?
A: 438 nM
